# From US20230094196A1, “AN IMPLANTABLE MEDICAL DEVICE” (NATIONAL UNIVERSITY OF IRELAND, GALWAY, priority 2019, published 2023)
# Where two headings read alike, the source gives them in different places.
# Details: for time to therapeutic effect (time when dP/dt max leveled off): n=1
# Experimental: Female Sprague Dawley rats (225-300 g) were anaesthetized using isoflurane (1-3% isoflurane in oxygen). Animals were treated with a single dose of sustained release buprenorphine (Bup-SR) at 1 mg/kg subcutaneously to control pain. 2 device of the invention reservoirs (porous or non-porous) were implanted subcutaneously in the rat, the device implantation procedure is shown in FIG. 3A. Briefly, the hair on the back of the rat was removed and surgical sites were prepared with 3 washes of Betadine and 70% ethanol. Devices were sterilized using ethylene oxide prior to implantation. An anterior incision was made at the base of the neck for the and 2 posterior incisions were made 9 cm from the original incision along the back of the rat, 1 cm lateral of the spine. A blunt dissection was made at all incisions and a forceps was used to tunnel subcutaneously from the anterior to the posterior sites. A vascular access button, or self-sealing subcutaneous port (VAB95BS-MRI, VABM2B/22R22, VABR4B/22 Instech Laboratories), was connected to the dorsal end of the catheter of each device of the invention reservoir. The port was placed in position at the base of the neck and the devices tunneled posteriorly into position. The port was secured to the underlying fascia using at least one interrupted suture (5-0 monofilament). Each device of the invention reservoir was secured to the underlying fascia with one suture at either side (7-0 monofilament). The skin was closed with interrupted sutures (5-0 monofilament) and the animal was allowed to recover on a heated pad. 3 mL of warm saline were administered subcutaneously. The following day, one of the two implanted device of the invention reservoirs was actuated at controlled input pressures of 1 PSI (Regime 1) or 2 PSI (Regime 2) at 1 Hz every 12 hours for 14 days (FIG. 3b) and compared to the non-actuated control reservoir for analysis. On day 15, animals were sacrificed by CO2. Following sacrifice, each device and the immediate surrounding tissue were extracted.
smiles,measurement,setting,value
CNC[C@H](O)c1ccc(O)c(O)c1 [epinephrine],time to therapeutic effect (time when dP/dt max leveled off),"actuated device, 35 uL of 1 mg/ml",~40 s
same,time to therapeutic effect (time when dP/dt max leveled off),"control (non-actuated) device, same animal",~170 s
same,"cyclical average dp/dt max in the first 40 s after delivery, actuation group compared with control","first 40 s after delivery, P<0.0001",significantly higher
